Earlier results as cited in patent US20110075702A1, “THERMAL SENSING EQUIPMENT AND THERMAL SENSING PROCESS” (JOHNSON CONTROLS TECHNOLOGY COMPANY, priority 2007, published 2011).

Columns and labels:
[1] = @ 20° C. (68° F.)

- NFPA Fire (NFPA fire diamond Flammability Value): 2
- NFPA Health (NFPA fire diamond Health Value): 1
- NFPA Reactivity (NFPA fire diamond Reactivity Value): 0
- Solubility in Water [1]: 77 mg/mL
Compound: CC(=O)OCC(C)OC(C)=O (stereo not shown) [THERMAL FLUID #2, propylene glycol diacetate]
